Measurements from patent publication US10273272B2, “Antimicrobial peptides” (Amprologix Limited, priority 2014, dated 2019).
No end group written: not given here.

How the values were obtained:
S. Hominis = format: cell-based
Procedure: (§1) Experiments were conducted in which the full-length epidermicin peptide (51 amino acids, SEQ ID NO:10) was truncated to yield the derivatives shown in FIG. 1 (SEQ ID NOs:11 to 19). NI011-37 (SEQ ID NO:11) Is the region most similar to other peptides in the public domain, NI0138-51 (SEQ ID NO:12) is the region that is most unique with respect to other peptides in the public domain. All other truncations have been carried out by removing residues from the amino-terminal end of the peptide to each lysine residue (K). Lysine is important in antimicrobial peptides as it contributes to the net positive charge, which is thought to have a key role in the mode of action of ‘cationic’ peptides, like NI01 (SEQ ID NO:10).

S. aureus 1195 = format: cell-based
Procedure: as §1

S. epidermidis = format: cell-based
Procedure: as §1

S. saprophyticus = format: cell-based
Procedure: as §1

MRSA = format: cell-based, Staphylococcus aureus
Procedure: as §1

KQIKKLWA [SEQ ID NO:19]
MIC (S. Hominis): >64 µg/mL | MIC (S. aureus 1195): 16 µg/mL | MIC (S. epidermidis): >64 µg/mL | MIC (S. saprophyticus): 16 µg/mL | MIC (MRSA): >64 µg/mL
